These molecules were tested against C5aR (Homo sapiens (Human), UniProt P21730) (assay: Chemotaxis assay using U937 cells (C5aR mediated migration)). Conditions: read-out: Mig IC50.
Format: cell-based
Outline: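 Migration toward 0.03 nM C5a, mixed with varying compound in the lower chamber (HBSS with 1% FBS), was measured over 1.5 h at 37° C through 5 μm filters. Upper chamber held 100,000 U937 cells treated overnight with 0.5 mM cAMP; migrated cells quantified by counts or CyQuant for IC50, SDF-1α as specificity control.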

Chain of C5aR (P21730 whole entry): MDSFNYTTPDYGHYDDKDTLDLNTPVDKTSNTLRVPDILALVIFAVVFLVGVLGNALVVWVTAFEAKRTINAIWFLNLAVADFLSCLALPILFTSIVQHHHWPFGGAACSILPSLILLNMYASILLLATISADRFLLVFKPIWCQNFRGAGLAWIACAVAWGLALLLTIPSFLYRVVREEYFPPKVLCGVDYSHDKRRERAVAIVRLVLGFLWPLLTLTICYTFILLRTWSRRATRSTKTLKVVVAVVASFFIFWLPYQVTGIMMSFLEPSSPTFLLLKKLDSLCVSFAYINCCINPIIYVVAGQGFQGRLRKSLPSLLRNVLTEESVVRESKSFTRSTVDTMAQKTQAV

**Q.** `Cc1cccc(C)c1-n1nc2c(c1-c1ccc(CO)cc1)CN(c1ccccc1C(C)C)CC2` [Example 1.467] was tested. Which IC50 did it give?
**A.** 50 to 500 nM

**Q.** Which IC50 does the source give for `Cc1cc(N)ccc1-c1c2c(nn1-c1c(C)cccc1C)CCN(c1ccccc1C(C)C)C2` [Example 1.468] here?
**A.** 50 to 500 nM

**Q.** How did the IC50 turn out when `COc1cccc(C)c1-n1nc2c(c1-c1ccc(N)cc1)CN(c1cc(C(C)(C)C)ccc1C)CC2` [Example 1.469] was run?
**A.** 50 to 500 nM

**Q.** `Cc1cccc(C)c1-n1nc2c(c1-c1ccc(C(N)=O)cc1)CN(c1ccccc1C(C)C)CC2` [Example 1.470] was tested. Which IC50 did it give?
**A.** 5 to 50 nM

**Q.** Which IC50 does the source give for `Cc1cccc(C)c1-n1nc2c(c1-c1ccc(N)cc1)CN(c1ccccc1C(C)(C)C)CC2` [Example 1.471] here?
**A.** 5 to 50 nM

**Q.** Which IC50 does the source give for `COc1ccc(-c2c3c(nn2-c2c(C)cccc2C)CCN(c2cc(C(C)(C)C)ccc2C)C3)cc1` [Example 1.472] here?
**A.** 50 to 500 nM

**Q.** `Cc1cccc(OCC(C)C)c1-n1nc2c(c1-c1ccc(NC(N)=O)cc1)CN(c1ccccc1C(C)C)CC2` [Example 1.474] was tested. Which IC50 did it give?
**A.** ≤ 5 nM

**Q.** How did the IC50 turn out when `CCOc1cccc(C)c1-n1nc2c(c1-c1ccc(NC(N)=O)cc1)CN(c1ccccc1C(C)C)CC2` [Example 1.475] was run?
**A.** 5 to 50 nM

**Q.** `CCNc1ccc(-c2c3c(nn2-c2c(C)cccc2OC)CCN(c2ccccc2C(C)C)C3)cc1` [Example 1.476] was tested. Which IC50 did it give?
**A.** 5 to 50 nM

**Q.** With `Cc1cccc(C)c1-n1nc2c(c1-c1ccc(NC(C)C)cc1)CN(c1ccccc1C(C)C)CC2` [Example 1.477] as the molecule, how does the IC50 read?
**A.** 50 to 500 nM

**Q.** For `Cc1cccc(C)c1-n1nc2c(c1-c1ccc(NC(N)=O)cc1)CN(c1ccccc1C(C)C)CC2` [Example 1.478], which IC50 is on record?
**A.** 50 to 500 nM

**Q.** With `CCOc1cccc(C)c1-n1nc2c(c1-c1ccc(N)cc1)CN(c1ccccc1C(C)C)CC2` [Example 1.479] as the molecule, how does the IC50 read?
**A.** 50 to 500 nM

**Q.** With `Cc1cccc(OCC(C)C)c1-n1nc2c(c1-c1ccc(N)cc1)CN(c1ccccc1C(C)C)CC2` [Example 1.480] as the molecule, how does the IC50 read?
**A.** 5 to 50 nM

**Q.** How did the IC50 turn out when `Cc1cccc(C)c1-n1nc2c(c1-c1ccc(N)cc1)CN(c1ccccc1C(C)C)CC2` [Example 1.481] was run?
**A.** 5 to 50 nM

**Q.** How did the IC50 turn out when `COc1cccc(C)c1-n1nc2c(c1-c1ccc(NC(N)=O)cc1)CN(c1ccccc1C(C)C)CC2` [Example 1.482] was run?
**A.** 5 to 50 nM

**Q.** How did the IC50 turn out when `COc1cccc(C)c1-n1nc2c(c1-c1ccc(NC(C)=O)cc1)CN(c1ccccc1C(C)C)CC2` [Example 1.483] was run?
**A.** > 500 nM

**Q.** `COc1cccc(C)c1-n1nc2c(c1-c1ccc(NC(N)=O)cc1)CN(c1ccccc1C)CC2` [Example 1.484] was tested. Which IC50 did it give?
**A.** 50 to 500 nM

**Q.** For `COc1cccc(C)c1-n1nc2c(c1-c1ccc(NC(C)C)cc1)CN(c1ccccc1C(C)C)CC2` [Example 1.485], which IC50 is on record?
**A.** 50 to 500 nM

**Q.** With `COc1cccc(C)c1-n1nc2c(c1-c1ccc(N)cc1)CN(c1ccccc1C(C)C)CC2` [Example 1.486] as the molecule, how does the IC50 read?
**A.** 50 to 500 nM

**Q.** For `COc1cccc(C)c1-n1nc2c(c1-c1ccc(N(C)C)cc1)CN(c1ccccc1C)CC2` [Example 1.487], which IC50 is on record?
**A.** > 500 nM

**Q.** How did the IC50 turn out when `COc1cccc(C)c1-n1nc2c(c1-c1ccc(NC(=O)NC(C)(C)C)cc1)CN(c1ccccc1C)CC2` [Example 1.488] was run?
**A.** > 500 nM

**Q.** With `COc1cccc(C)c1-n1nc2c(c1-c1ccc(NC(C)C)cc1)CN(c1ccccc1C)CC2` [Example 1.489] as the molecule, how does the IC50 read?
**A.** > 500 nM

**Q.** For `COc1cccc(C)c1-n1nc2c(c1-c1ccc(NC3CCCC3)cc1)CN(c1ccccc1C)CC2` [Example 1.490], which IC50 is on record?
**A.** > 500 nM

**Q.** How did the IC50 turn out when `COc1cccc(C)c1-n1nc2c(c1-c1ccc(N)cc1)CN(c1ccccc1C)CC2` [Example 1.491] was run?
**A.** 50 to 500 nM

— US11478460B2, “Diaryl substituted 6,5-fused ring compounds as C5aR inhibitors” (CHEMOCENTRYX, INC., priority 2017, dated 2022)
